Results: article PMC5071162 (ACS chemical neuroscience, 2016)
pEC50: −log10 of the molar value. Where two headings read alike, the source gives them in different places.

Key:
GPR88 = conditions: HTRF cAMP assay; ref 13 (Bi et al.); cited from earlier work
P-glycoprotein = conditions: reported; cited from earlier work
human GPR88 = human GPR88 (Homo sapiens, UniProt Q9GZN0); experiment: Lance cAMP assay using stable PPLS-HA-GPR88 CHO cells; format: cell-based; conditions: for EC50: EC50 (nM); for agonist activity in words: qualitative SAR statement, Lance cAMP assay
Sequence of human GPR88 (Q9GZN0 whole entry): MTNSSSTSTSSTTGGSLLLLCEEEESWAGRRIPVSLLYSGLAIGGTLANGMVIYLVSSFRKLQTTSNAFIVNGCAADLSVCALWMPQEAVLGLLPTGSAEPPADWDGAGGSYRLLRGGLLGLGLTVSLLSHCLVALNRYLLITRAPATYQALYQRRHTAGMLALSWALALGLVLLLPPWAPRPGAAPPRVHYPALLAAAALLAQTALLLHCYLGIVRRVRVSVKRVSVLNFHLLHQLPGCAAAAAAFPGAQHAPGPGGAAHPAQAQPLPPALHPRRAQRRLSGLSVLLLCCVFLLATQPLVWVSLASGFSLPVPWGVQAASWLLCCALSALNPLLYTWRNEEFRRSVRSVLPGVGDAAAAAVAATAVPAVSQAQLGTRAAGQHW

Compound | pEC50 (human GPR88; EC50) | agonist activity in words (human GPR88) | also measured
CCCc1ccc(-c2ccc(N(C[C@@H](N)[C@@H](C)CC)C(=O)[C@@H]3C[C@H]3c3ccccn3)cc2)cc1 (relative stereo) [compound 1, (1R*,2R*)-2-(pyridin-2-yl)-cyclopropanecarboxylic acid ((2S,3S)-2-amino-3-methylpentyl)-(4′-propylbiphenyl-4-yl)-amide] | – | – | P-glycoprotein substrate (P-glycoprotein): P-glycoprotein substrate
CC[C@H](C)[C@H](N)CN(C(=O)[C@@H]1C[C@H]1c1ccccn1)c1ccc(-c2ccc(CC(C)C)cc2)cc1 (relative stereo) [5e, (1R*,2R*)-2-(Pyridin-2-yl)cyclopropanecarboxylic Acid [(2S,3S)-2-Amino-3-methylpentyl]-(4′-isobutylbiphenyl-4-yl)amide] | 6.57 | – | –
CC[C@H](C)[C@H](N)CN(C(=O)[C@@H]1C[C@H]1c1ccccn1)c1ccc(-c2ccc3c(c2)OCO3)cc1 (relative stereo) [5o, (1R*,2R*)-2-(Pyridin-2-yl)cyclopropanecarboxylic Acid [(2S,3S)-2-Amino-3-methylpentyl]-(3′,4′-methylenedioxybiphenyl-4-yl)amide] | 6.69 | – | EC50 (human GPR88): 204 nM
CC[C@H](C)[C@H](N)CN(C(=O)[C@@H]1C[C@H]1c1ccccn1)c1ccc(-c2ccc(NC(C)=O)cc2)cc1 (relative stereo) [5y, (1R*,2R*)-2-(Pyridin-2-yl)cyclopropanecarboxylic Acid [(2S,3S)-2-Amino-3-methylpentyl]-(4′-acetamidobiphenyl-4-yl)amide] | – | least activity in the series | –
CC[C@H](C)[C@H](N)CN(C(=O)[C@@H]1C[C@H]1c1ccccn1)c1ccc(-c2ccc(OC)c(OC)c2)cc1 (relative stereo) [5n, (1R*,2R*)-2-(Pyridin-2-yl)cyclopropanecarboxylic Acid [(2S,3S)-2-Amino-3-methylpentyl]-(3′,4′-dimethoxybiphenyl-4-yl)amide] | 6.04 | – | fold loss of activity (human GPR88): approximately 10 fold
CC[C@H](C)[C@H](N)CN(C(=O)[C@@H]1C[C@H]1c1ccccn1)c1ccc(-c2ccc(C(N)=O)cc2)cc1 (relative stereo) [5z, (1R*,2R*)-2-(Pyridin-2-yl)cyclopropanecarboxylic Acid [(2S,3S)-2-Amino-3-methylpentyl]-(4′-carbamoylbiphenyl-4-yl)amide] | – | least activity in the series | –
CC[C@H](C)[C@H](N)CN(C(=O)[C@@H]1C[C@H]1c1ccccn1)c1ccc(-c2ccc(C)cc2)cc1 (relative stereo) [5a, (1R*,2R*)-2-(Pyridin-2-yl)cyclopropanecarboxylic Acid [(2S,3S)-2-Amino-3-methylpentyl]-(4′-methylbiphenyl-4-yl)amide] | 6.98 | – | EC50 (human GPR88): 104 nM
CCOc1ccc(-c2ccc(N(C[C@@H](N)[C@@H](C)CC)C(=O)[C@@H]3C[C@H]3c3ccccn3)cc2)cc1 (relative stereo) [5l, (1R*,2R*)-2-(Pyridin-2-yl)cyclopropanecarboxylic Acid [(2S,3S)-2-Amino-3-methylpentyl]-(4′-ethoxybiphenyl-4-yl)amide] | 7.09 | – | EC50 (human GPR88): 82 nM
CC[C@H](C)[C@H](N)CN(C(=O)[C@@H]1C[C@H]1c1ccccn1)c1ccc(-c2ccc([N+](=O)[O-])cc2)cc1 (relative stereo) [5s, (1R*,2R*)-2-(Pyridin-2-yl)cyclopropanecarboxylic Acid [(2S,3S)-2-Amino-3-methylpentyl]-(4′-nitrobiphenyl-4-yl)amide] | 6.56 | – | –
CCOC(=O)c1ccc(-c2ccc(N(C[C@@H](N)[C@@H](C)CC)C(=O)[C@@H]3C[C@H]3c3ccccn3)cc2)cc1 (relative stereo) [5u, (1R*,2R*)-2-(Pyridin-2-yl)cyclopropanecarboxylic Acid [(2S,3S)-2-Amino-3-methylpentyl]-(4′-ethoxycarbonylbiphenyl-4-yl)amide] | 6.59 | – | –
CC[C@H](C)[C@H](N)CN(C(=O)[C@@H]1C[C@H]1c1ccccn1)c1ccc(-c2ccc(N)cc2)cc1 (relative stereo) [5w, (1R*,2R*)-2-(Pyridin-2-yl)cyclopropanecarboxylic Acid [(2S,3S)-2-Amino-3-methylpentyl]-(4′-aminobiphenyl-4-yl)amide] | 5.95 | significant decrease in activity | –
(1R*,2R*)-2-(Pyridin-2-yl)cyclopropanecarboxylic Acid [(2S,3S)-2-Amino-3-methylpentyl]-(4′-phenethylphenyl-4-yl)amide [4g] | – | deteriorated activity | –
CC[C@H](C)[C@H](N)CN(C(=O)[C@@H]1C[C@H]1c1ccccn1)c1ccc(-c2ccc(Cl)cc2)cc1 (relative stereo) [5q, (1R*,2R*)-2-(Pyridin-2-yl)cyclopropanecarboxylic Acid [(2S,3S)-2-Amino-3-methylpentyl]-(4′-chlorobiphenyl-4-yl)amide] | 6.67 | – | –
CC[C@H](C)[C@H](N)CN(C(=O)[C@@H]1C[C@H]1c1ccccn1)c1ccc(-c2ccc(C(C)(C)C)cc2)cc1 (relative stereo) [5f, (1R*,2R*)-2-(Pyridin-2-yl)cyclopropanecarboxylic Acid [(2S,3S)-2-Amino-3-methylpentyl]-(4′-tert-butylbiphenyl-4-yl)amide] | 6.29 | – | –
CC[C@H](C)[C@H](N)CN(C(=O)[C@@H]1C[C@H]1c1ccccn1)c1ccc(-c2ccccc2)cc1 (relative stereo) [4d, (1R*,2R*)-2-(Pyridin-2-yl)cyclopropanecarboxylic Acid [(2S,3S)-2-Amino-3-methylpentyl]-(biphenyl-4-yl)amide] | – | – | pEC50 (human GPR88): 6.55
(1R*,2R*)-2-(Pyridin-2-yl)cyclopropanecarboxylic Acid [(2S,3S)-2-Amino-3-methylpentyl]-(4′-phenoxyphenyl-4-yl)amide [4e] | – | deteriorated activity | –
CC[C@H](C)[C@H](N)CN(C(=O)[C@@H]1C[C@H]1c1ccccn1)c1ccc(-c2ccc(C3CCCCC3)cc2)cc1 (relative stereo) [5h, (1R*,2R*)-2-(Pyridin-2-yl)cyclopropanecarboxylic Acid [(2S,3S)-2-Amino-3-methylpentyl]-(4′-cyclohexylbiphenyl-4-yl)amide] | 6.75 | – | pEC50 (human GPR88; pEC50): 6.76
(1R*,2R*)-2-(Pyridin-2-yl)cyclopropanecarboxylic Acid [(2S,3S)-2-Amino-3-methylpentyl]-(4′-benzylphenyl-4-yl)amide [4f] | – | deteriorated activity | –
CC[C@H](C)[C@H](N)CN(C(=O)[C@@H]1C[C@H]1c1ccccn1)c1ccc(-c2ccc(N(C)C)cc2)cc1 (relative stereo) [5x, (1R*,2R*)-2-(Pyridin-2-yl)cyclopropanecarboxylic Acid [(2S,3S)-2-Amino-3-methylpentyl]-[4′-(dimethylamino)biphenyl-4-yl]amide] | 6.53 | – | –
